Holding throughout (assay type): in vivo
One assay relates to Cyperus microiria. Description: Test for Herbicidal Effect in Flooding Treatment (#1), CYMIC. The note with it: flooding treatment at seeding, dose 2 kg/ha, visual observation on day 21. On the procedure:
(#1) Test for Herbicidal Effect in Flooding Treatment: Styrol cups each having an opening diameter of 8 cm (about 52 cm^2) were respectively filled with soil (45 ml) which had been passed through a sieve (2 mm). Water (about 115 ml) was mixed with the soil such that the soil was flooded. After the soil stood still for 24 hours, Monochoria vaginalis, Echinochloa crus-galli (L.) P. Beauv. var. formosensis Ohwi, Cyperus difformis (umbrella sedge), and Scirpus juncoides were seeded. Each of the compounds of the present invention was dissolved in acetone, and the obtained product was then diluted with water containing Tween 80®. Each of the resultant chemical solutions was dropped on the entire surface of an associated one of treatment sections, so that each section was treated with 1 ml of the respective chemical solution (a dose of 2 kg/ha). After the treatment, the plants were grown in a glasshouse. On day 21, a survey was conducted on the herbicidal activity by visual observation, and evaluation was made according to the following criteria. 0: Growth inhibition effect is less than 10%. 1: Growth inhibition effect is equal to or greater than 10%, and less than 30%. 2; Growth inhibition effect is equal to or greater than 30%, and less than 50%. 3: Growth inhibition effect equal to or greater than 50%, and less than 70%. 4: Growth inhibition effect is equal to or greater than 70%, and less than 90%. 5: Growth inhibition effect is equal to or greater than 90%, or complete withering is achieved. ECHDG=Echinochloa crus-galli (L.) P. Beauv. var. formosensis Ohwi, MONVA=Monochoria vaginalis, SCIJU=Scirpus juncoides, CYMIC=Cyperus microiria.

The test system of assay [1] is Echinochloa crus-galli (L.) P. Beauv. var. formosensis Ohwi. The assay is described as follows: Test for Herbicidal Effect in Flooding Treatment (#2), ECHDG at 2-2.5 leaf stage. The note with it: flooding treatment at 2-2.5 leaf stage, dose 0.2 kg/ha, visual observation on day 21. An outline of the steps:
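Flooded muddy soil was seeded with the weed, and at 2–2.5 leaf stage compound in acetone/Tween 80 water was dropped on the water surface at 0.2 kg/ha. Plants were kept in a glasshouse and scored visually on day 21 from 0 (<10% growth inhibition) to 5 (≥90% or complete withering).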

For assay [2] the test system is unchanged. Description: Test for Herbicidal Effect in Flooding Treatment (#1), ECHDG. Conditions: flooding treatment at seeding, dose 2 kg/ha, visual observation on day 21. An outline of the steps:
(§1)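 Sieved soil in cups was flooded and left 24 h before weed seeds were sown. Compounds in acetone, diluted with Tween 80-containing water, were dropped over the whole surface at 2 kg/ha. After 21 days in a glasshouse, growth inhibition was scored visually from 0 (<10%) to 5 (≥90% or complete withering).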

Another assay relates to Scirpus juncoides. The assay is described as follows: Test for Herbicidal Effect in Flooding Treatment (#1), SCIJU. The note with it: flooding treatment at seeding, dose 2 kg/ha, visual observation on day 21. An outline of the steps: as §1

Molecules are shown by their SMILES.

As for `CCOc1cc(CS(=O)(=O)c2ncc(Cl)s2)ccc1F` [Compound 1C-76], the “CYMIC #1 herbicidal effect (growth inhibition grade)” value with Cyperus microiria was 5 (Growth inhibition effect is equal to or greater than 90%, or complete withering is achieved). Besides, the “ECHDG (2-2.5L) #2 herbicidal effect (growth inhibition grade)” value in assay [1] is 4 (Growth inhibition effect is equal to or greater than 70%, and less than 90%). Further, the “ECHDG #1 herbicidal effect (growth inhibition grade)” value in assay [2] is listed as 5 (Growth inhibition effect is equal to or greater than 90%, or complete withering is achieved). Besides, the “SCIJU #1 herbicidal effect (growth inhibition grade)” value with Scirpus juncoides is 5 (Growth inhibition effect is equal to or greater than 90%, or complete withering is achieved).

Take `CCOc1ccc(Cl)c(CS(=O)(=O)c2ncc(Cl)s2)c1` [Compound 1C-80]: the “CYMIC #1 herbicidal effect (growth inhibition grade)” value in the assay on Cyperus microiria was 5 (Growth inhibition effect is equal to or greater than 90%, or complete withering is achieved). In assay [1], the “ECHDG (2-2.5L) #2 herbicidal effect (growth inhibition grade)” value is reported as 5 (Growth inhibition effect is equal to or greater than 90%, or complete withering is achieved). The “ECHDG #1 herbicidal effect (growth inhibition grade)” value in assay [2] is 5 (Growth inhibition effect is equal to or greater than 90%, or complete withering is achieved). Moreover, the “SCIJU #1 herbicidal effect (growth inhibition grade)” value in the assay on Scirpus juncoides is 5 (Growth inhibition effect is equal to or greater than 90%, or complete withering is achieved).

As for `O=S(=O)(Cc1cccc(OC(F)F)c1)c1ncc(Cl)s1` [Compound 1C-84], the “CYMIC #1 herbicidal effect (growth inhibition grade)” value in the assay on Cyperus microiria was 5 (Growth inhibition effect is equal to or greater than 90%, or complete withering is achieved). Further, in assay [1], the “ECHDG (2-2.5L) #2 herbicidal effect (growth inhibition grade)” value is 3 (Growth inhibition effect equal to or greater than 50%, and less than 70%). For the same compound, the “ECHDG #1 herbicidal effect (growth inhibition grade)” value in assay [2] is recorded as 5 (Growth inhibition effect is equal to or greater than 90%, or complete withering is achieved). In addition, in the assay on Scirpus juncoides, the “SCIJU #1 herbicidal effect (growth inhibition grade)” value is reported as 5 (Growth inhibition effect is equal to or greater than 90%, or complete withering is achieved).

As for `O=S(=O)(Cc1cccc(OC(F)(F)F)c1)c1ncc(Cl)s1` [Compound 1C-85, 5-chloro-2-{[3-(trifluoromethoxy)phenyl][methanesulfonyl]}-1,3-thiazole], the “CYMIC #1 herbicidal effect (growth inhibition grade)” value with Cyperus microiria was 5 (Growth inhibition effect is equal to or greater than 90%, or complete withering is achieved). Further, in assay [1], the “ECHDG (2-2.5L) #2 herbicidal effect (growth inhibition grade)” value is 1 (Growth inhibition effect is equal to or greater than 10%, and less than 30%). For the same compound, the “ECHDG #1 herbicidal effect (growth inhibition grade)” value in assay [2] was 5 (Growth inhibition effect is equal to or greater than 90%, or complete withering is achieved). For the same compound, the “SCIJU #1 herbicidal effect (growth inhibition grade)” value in the assay with Scirpus juncoides is recorded as 5 (Growth inhibition effect is equal to or greater than 90%, or complete withering is achieved).

In the case of `COc1ccc(CS(=O)(=O)c2ncc(Cl)s2)cc1` [Compound 1C-87], the “CYMIC #1 herbicidal effect (growth inhibition grade)” value in the assay on Cyperus microiria is listed as 5 (Growth inhibition effect is equal to or greater than 90%, or complete withering is achieved). Further, the “ECHDG (2-2.5L) #2 herbicidal effect (growth inhibition grade)” value in assay [1] was 1 (Growth inhibition effect is equal to or greater than 10%, and less than 30%). Besides, the “ECHDG #1 herbicidal effect (growth inhibition grade)” value in assay [2] was 5 (Growth inhibition effect is equal to or greater than 90%, or complete withering is achieved). In addition, the “SCIJU #1 herbicidal effect (growth inhibition grade)” value in the assay with Scirpus juncoides is reported as 5 (Growth inhibition effect is equal to or greater than 90%, or complete withering is achieved).

For `COc1ccc(CS(=O)(=O)c2ncc(Cl)s2)cc1Cl` [Compound 1C-89], in the assay on Cyperus microiria, the “CYMIC #1 herbicidal effect (growth inhibition grade)” value is listed as 5 (Growth inhibition effect is equal to or greater than 90%, or complete withering is achieved). Besides, the “ECHDG (2-2.5L) #2 herbicidal effect (growth inhibition grade)” value in assay [1] was 3 (Growth inhibition effect equal to or greater than 50%, and less than 70%). Further, the “ECHDG #1 herbicidal effect (growth inhibition grade)” value in assay [2] is 5 (Growth inhibition effect is equal to or greater than 90%, or complete withering is achieved). The “SCIJU #1 herbicidal effect (growth inhibition grade)” value in the assay with Scirpus juncoides was 5 (Growth inhibition effect is equal to or greater than 90%, or complete withering is achieved).

For `COc1cc(F)c(CS(=O)(=O)c2ncc(Cl)s2)c(F)c1` [Compound 1C-90], in the assay on Cyperus microiria, the “CYMIC #1 herbicidal effect (growth inhibition grade)” value is 5 (Growth inhibition effect is equal to or greater than 90%, or complete withering is achieved). Also, in assay [1], the “ECHDG (2-2.5L) #2 herbicidal effect (growth inhibition grade)” value is 5 (Growth inhibition effect is equal to or greater than 90%, or complete withering is achieved). The “ECHDG #1 herbicidal effect (growth inhibition grade)” value in assay [2] is reported as 5 (Growth inhibition effect is equal to or greater than 90%, or complete withering is achieved). Moreover, the “SCIJU #1 herbicidal effect (growth inhibition grade)” value with Scirpus juncoides is recorded as 5 (Growth inhibition effect is equal to or greater than 90%, or complete withering is achieved).

With `CCOc1ccc(CS(=O)(=O)c2ncc(Cl)s2)c(Cl)c1` [Compound 1C-92], in the assay on Cyperus microiria, the “CYMIC #1 herbicidal effect (growth inhibition grade)” value is 5 (Growth inhibition effect is equal to or greater than 90%, or complete withering is achieved). Moreover, the “ECHDG (2-2.5L) #2 herbicidal effect (growth inhibition grade)” value in assay [1] is reported as 5 (Growth inhibition effect is equal to or greater than 90%, or complete withering is achieved). Also, the “ECHDG #1 herbicidal effect (growth inhibition grade)” value in assay [2] is 5 (Growth inhibition effect is equal to or greater than 90%, or complete withering is achieved). In addition, the “SCIJU #1 herbicidal effect (growth inhibition grade)” value in the assay with Scirpus juncoides is on record as 5 (Growth inhibition effect is equal to or greater than 90%, or complete withering is achieved).

Take `CCOc1ccc(CS(=O)(=O)c2ncc(Cl)s2)cc1F` [Compound 1C-95]: the “CYMIC #1 herbicidal effect (growth inhibition grade)” value in the assay with Cyperus microiria is given as 5 (Growth inhibition effect is equal to or greater than 90%, or complete withering is achieved). Besides, the “ECHDG (2-2.5L) #2 herbicidal effect (growth inhibition grade)” value in assay [1] is 3 (Growth inhibition effect equal to or greater than 50%, and less than 70%). Moreover, in assay [2], the “ECHDG #1 herbicidal effect (growth inhibition grade)” value is 5 (Growth inhibition effect is equal to or greater than 90%, or complete withering is achieved). Moreover, the “SCIJU #1 herbicidal effect (growth inhibition grade)” value in the assay with Scirpus juncoides is recorded as 5 (Growth inhibition effect is equal to or greater than 90%, or complete withering is achieved).

Regarding `CCOc1ccc(CS(=O)(=O)c2ncc(Cl)s2)cc1Cl` [Compound 1C-96], the “CYMIC #1 herbicidal effect (growth inhibition grade)” value in the assay with Cyperus microiria is given as 5 (Growth inhibition effect is equal to or greater than 90%, or complete withering is achieved). For the same compound, the “ECHDG (2-2.5L) #2 herbicidal effect (growth inhibition grade)” value in assay [1] was 4 (Growth inhibition effect is equal to or greater than 70%, and less than 90%). The “ECHDG #1 herbicidal effect (growth inhibition grade)” value in assay [2] is 5 (Growth inhibition effect is equal to or greater than 90%, or complete withering is achieved). In addition, in the assay on Scirpus juncoides, the “SCIJU #1 herbicidal effect (growth inhibition grade)” value was 5 (Growth inhibition effect is equal to or greater than 90%, or complete withering is achieved).

With `CCOc1ccc(CS(=O)(=O)c2ncc(Cl)s2)cc1C` [Compound 1C-97], in the assay on Cyperus microiria, the “CYMIC #1 herbicidal effect (growth inhibition grade)” value is on record as 5 (Growth inhibition effect is equal to or greater than 90%, or complete withering is achieved). Moreover, the “ECHDG (2-2.5L) #2 herbicidal effect (growth inhibition grade)” value in assay [1] was 3 (Growth inhibition effect equal to or greater than 50%, and less than 70%). Besides, the “ECHDG #1 herbicidal effect (growth inhibition grade)” value in assay [2] is reported as 5 (Growth inhibition effect is equal to or greater than 90%, or complete withering is achieved). Moreover, in the assay on Scirpus juncoides, the “SCIJU #1 herbicidal effect (growth inhibition grade)” value is on record as 5 (Growth inhibition effect is equal to or greater than 90%, or complete withering is achieved).

Take `CCOc1cc(Cl)c(CS(=O)(=O)c2ncc(Cl)s2)cc1Cl` [Compound 1C-102]: the “CYMIC #1 herbicidal effect (growth inhibition grade)” value in the assay with Cyperus microiria was 5 (Growth inhibition effect is equal to or greater than 90%, or complete withering is achieved). Also, in assay [1], the “ECHDG (2-2.5L) #2 herbicidal effect (growth inhibition grade)” value was 4 (Growth inhibition effect is equal to or greater than 70%, and less than 90%). The “ECHDG #1 herbicidal effect (growth inhibition grade)” value in assay [2] is 5 (Growth inhibition effect is equal to or greater than 90%, or complete withering is achieved). Also, the “SCIJU #1 herbicidal effect (growth inhibition grade)” value with Scirpus juncoides was 5 (Growth inhibition effect is equal to or greater than 90%, or complete withering is achieved).

Regarding `CCOc1cc(F)c(CS(=O)(=O)c2ncc(Cl)s2)c(F)c1` [Compound 1C-103], in the assay with Cyperus microiria, the “CYMIC #1 herbicidal effect (growth inhibition grade)” value is given as 5 (Growth inhibition effect is equal to or greater than 90%, or complete withering is achieved). In assay [1], the “ECHDG (2-2.5L) #2 herbicidal effect (growth inhibition grade)” value is on record as 5 (Growth inhibition effect is equal to or greater than 90%, or complete withering is achieved). Besides, the “ECHDG #1 herbicidal effect (growth inhibition grade)” value in assay [2] was 5 (Growth inhibition effect is equal to or greater than 90%, or complete withering is achieved). In the assay with Scirpus juncoides, the “SCIJU #1 herbicidal effect (growth inhibition grade)” value was 5 (Growth inhibition effect is equal to or greater than 90%, or complete withering is achieved).
